# Measurements from article PMC10100225, “In Vivo Biocatalytic Cascades Featuring an Artificial‐Enzyme‐Catalysed New‐to‐Nature Reaction” (Angewandte Chemie (International Ed. in English), 2022).
# How the values were obtained:
# Assay type in all cases: cell-based
# [1] = molecular target: carboxylic acid reductase (CAR) (Nocardia iowensis, UniProt Q6RKB1); experiment: whole-cell aldehyde formation; settings: E. coli RARE cells co-expressing SFP; MMV medium, 5 mM, 24 °C
# [2] = molecular target: T1, 5-Hydroxymethylfurfural (HMF) oxidase (HMFO) (Methylovorus sp. MP688, UniProt E4QP00); experiment: whole-cell alcohol oxidation; settings: O2 as oxidant; E. coli RARE cells, 5 mM, 2 h
# T1 construct: gene MPQ_0130; flavoprotein, pBAD vector, expressed in E. coli K-12 MG1655 (RARE); no mutations told
# T1 sequence (E4QP00 1-531): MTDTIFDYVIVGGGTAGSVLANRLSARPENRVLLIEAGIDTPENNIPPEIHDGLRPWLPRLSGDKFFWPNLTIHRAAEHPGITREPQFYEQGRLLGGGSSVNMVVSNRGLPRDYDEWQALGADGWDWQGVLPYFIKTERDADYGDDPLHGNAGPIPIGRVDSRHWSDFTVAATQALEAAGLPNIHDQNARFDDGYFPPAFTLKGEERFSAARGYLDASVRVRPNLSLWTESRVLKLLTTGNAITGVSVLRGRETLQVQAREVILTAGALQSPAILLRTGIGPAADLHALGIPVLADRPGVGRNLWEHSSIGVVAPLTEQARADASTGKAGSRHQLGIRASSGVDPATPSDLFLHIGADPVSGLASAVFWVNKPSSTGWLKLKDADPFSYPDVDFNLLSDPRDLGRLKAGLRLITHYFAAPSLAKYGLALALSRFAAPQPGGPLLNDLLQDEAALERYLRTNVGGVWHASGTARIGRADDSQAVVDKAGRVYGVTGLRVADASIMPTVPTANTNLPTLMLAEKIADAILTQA
# [3] = molecular target: T2, feruloyl CoA synthase (FCS, Atfcs) (Amycolatopsis thermoflava, UniProt Z9FW54HPU9); experiment: whole-cell aldehyde formation; settings: E. coli RARE cells co-expressing ECH hydratase/aldolase, which completes the conversion to aldehyde; MMV medium, 5 mM, 24 °C
# T2 construct: pETDuet-1, co-expressed with enoyl-CoA hydratase/aldolase Atech of the same strain in E. coli K-12 MG1655 (RARE)
# Chain of carboxylic acid reductase (CAR) (Q6RKB1 2-1174): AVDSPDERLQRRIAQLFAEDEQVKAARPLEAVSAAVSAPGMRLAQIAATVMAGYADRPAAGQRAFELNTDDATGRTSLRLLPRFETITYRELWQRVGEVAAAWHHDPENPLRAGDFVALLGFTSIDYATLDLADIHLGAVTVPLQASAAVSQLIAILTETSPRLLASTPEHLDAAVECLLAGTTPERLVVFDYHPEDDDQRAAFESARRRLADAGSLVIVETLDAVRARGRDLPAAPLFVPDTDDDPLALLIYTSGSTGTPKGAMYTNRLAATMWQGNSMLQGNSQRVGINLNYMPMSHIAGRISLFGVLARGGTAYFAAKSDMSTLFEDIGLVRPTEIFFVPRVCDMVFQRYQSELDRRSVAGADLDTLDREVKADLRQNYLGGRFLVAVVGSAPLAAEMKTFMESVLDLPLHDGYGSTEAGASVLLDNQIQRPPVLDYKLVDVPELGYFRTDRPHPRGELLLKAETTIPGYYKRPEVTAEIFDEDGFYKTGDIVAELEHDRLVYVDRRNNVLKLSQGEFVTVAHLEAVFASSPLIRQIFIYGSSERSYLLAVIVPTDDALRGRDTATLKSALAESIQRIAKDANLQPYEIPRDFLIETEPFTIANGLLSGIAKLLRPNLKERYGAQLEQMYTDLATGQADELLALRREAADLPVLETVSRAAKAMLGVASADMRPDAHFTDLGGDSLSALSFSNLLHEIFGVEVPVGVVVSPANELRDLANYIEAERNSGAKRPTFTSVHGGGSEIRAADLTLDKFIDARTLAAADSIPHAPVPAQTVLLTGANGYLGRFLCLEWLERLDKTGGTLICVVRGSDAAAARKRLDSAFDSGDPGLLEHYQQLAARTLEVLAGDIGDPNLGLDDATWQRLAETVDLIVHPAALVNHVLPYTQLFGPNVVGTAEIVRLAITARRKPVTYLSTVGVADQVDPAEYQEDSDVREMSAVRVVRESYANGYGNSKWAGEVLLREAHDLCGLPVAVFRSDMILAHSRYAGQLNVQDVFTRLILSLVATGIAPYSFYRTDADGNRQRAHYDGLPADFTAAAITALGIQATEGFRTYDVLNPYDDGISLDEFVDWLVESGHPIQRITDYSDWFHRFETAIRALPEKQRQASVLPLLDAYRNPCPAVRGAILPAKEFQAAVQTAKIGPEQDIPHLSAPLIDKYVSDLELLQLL
smiles,measurement,setting,value
"O=C(O)c1ccc(O)cc1 [4 a, p-hydroxybenzoic acid]",whole-cell aldehyde formation,[1],"CAR‐SFP/E. coli RARE, from p‐hydroxybenzoic acid, produced a good yield of p‐hydroxybenzaldehyde"
"O=C(O)c1ccccc1 [4 b, benzoic acid]",whole-cell aldehyde formation,[1],reduction of benzoic acid to benzaldehyde catalysed by CAR‐SFP/E. coli RARE
"OCc1ccc(O)cc1 [6 a, p-hydroxybenzyl alcohol]",whole-cell alcohol oxidation,[2],whole cell HMFO catalysed oxidation of benzyl alcohol and p‐hydroxybenzyl alcohol
"OCc1ccccc1 [6 b, benzyl alcohol]",whole-cell alcohol oxidation,[2],whole cell HMFO catalysed oxidation of benzyl alcohol and p‐hydroxybenzyl alcohol
"O=C(O)/C=C/c1ccc(O)cc1 [compound 5, p-coumaric acid]",whole-cell aldehyde formation,[3],"FCS‐ECH/E. coli RARE, starting from p‐coumaric acid"
